Patent US10905704B2, “Agents and methods using thereof for the prevention and treatment of stem cell muscle disorders” (ECOLE POLYTECHNIQUE FEDERALE DE LAUSANNE (EPFL), priority 2015, dated 2021)

How the values were obtained:
[1] = test system: tibialis anterior (TA) muscle; test: Cardiotoxin-induced muscle damage, regeneration of TA muscle; format: in vivo, C57BL/6J mice; details: for PAX7-positive MuSCs after CTX-induced damage: 7 days after CTX
Method: Cardiotoxin-induced muscle damage. Animals were anesthetized using Isoflurane in oxygen from a precision vaporizer. 50 μl of 20 μM Naje mossambica mossambica cardiotoxin (Sigma) was injected intramuscularly cross the skin and directly into the tibialis anterior (TA) muscle. Mice were sacrificed at 7 and 14 days after injury. TA muscles were immediately embedded in Thermo Scientific™ Shandon™ Cryomatrix™ and frozen in isopentane, cooled in liquid nitrogen, for 2 mins before being transferred to dry ice and stored at −80° C.
Histology. TA muscles were harvested from anaesthetized mice and immediately frozen in Tissue-TEK® OCT compound (PST). 8-μm cryosections were collected and fixed with 4% paraformaldehyde, which are either stained with haematoxylin/eosin (HE) or antibodies. For immunostainings, heat activated antigen retrieval was performed in pH 6.0 citrate buffer for 10 min at 65° C. After washing with PBS-0.1% tween 20 (PBST), the sections were blocked with 10% affinipure Fab goat anti mouse IgG (Jackson Immunoresearch) in PBST for 60 min and PBST containing 2% BSA and 5% goat serum for 30 min at room temperature. Primary antibodies were then applied over night at 4° C. The following antibodies were used: anti-eMHC (Developmental Studies Hybridoma Bank, DSHB, University of Iowa), anti-Pax7 (DSHB, University of Iowa), anti-Laminin (Sigma). Subsequently, the slides were washed in PBST and incubated with appropriate secondary antibodies and labeling dyes. For immunofluorescence, secondary antibodies were coupled to Alexa-488 or Alexa-568 fluorochromes (Life technology), and nuclei were stained with DAPI (Invitrogen). After washing in PBST, tissue sections were mounted with Dako mounting medium (Dako).

C2C12 myoblasts = test: Western blot of UPRmt markers, prohibitins and cell cycle proteins in NR-treated C2C12 myoblasts; format: cell-based, mouse
Method: Western blotting performed as described in Example 3. The following primary antibodies were used: anti-HSP60 (Enzo Life Science); anti-β-actin (Sigma); anti-PHB (Biolegend); anti-PHB2 (Santa Cruz); anti-CKD4 (Novus biologicals); anti-CCND1 (Santa Cruz); anti-CCND3 (Santa Cruz); anti-HSP90 (BD Biosciences); HSP70 (Abcam); and anti-CLPP (Sigma). Cell culture and treatments were prepared according to description of Example 3. C2C12 mouse myoblasts were grown in DMEM (4.5 g/1 glucose, Gibco) supplemented with 10% FBS and penicillin/streptomycin (1×, Gibco). Cell transformation with Phb (Santa Cruz) and Phb2 shRNA (Santa Cruz) were performed using jetPEI DNA transfection kit (Polyplus), according to manufacturer's instructions. Cells were treated with 1 mM NR or PBS for 6 hours before cell harvesting or fixation. Respirometry on C2C12 myoblasts. Basal and uncoupled oxygen consumption rates (OCRs) and the extracellular acidification rate (ECAR) was measured using the Seahorse extracellular flux bioanalyzer (XF96, Seahorse Bioscience Inc.). To uncouple mitochondria, 5 uM of FCCP was injected after a basal respiration measurement. All measurements were performed in triplicates and results were normalized to total protein amount (C2C12 cells), assessed using a Bradford kit (Bio-Rad).

MuSCs = test: MuSC numbers in NR-treated Mdx mice (FACS, PAX7 immunostaining); format: in vivo
Method: Animals. Young (1 month old) and aged (20-24 months old) C57BL/6JRj mice, purchased from Janvier Labs, and five weeks old male C57BL/10SnJ mice or C57BL/10ScSn-Dmdmdx/J, purchased from The Jackson Laboratory, were fed with pellets containing vehicle or NR (400 mg/kg/day) for 6-8 weeks. The pellets were prepared by mixing powdered chow diet (D12450B, Research Diets Inc.) with water or with NR dissolved in water. Pellets were dried under a laminar flow hood for 48 hours. All mice were housed in micro-isolator cages in a room illuminated from 7:00 am -7:00 pm with ad libitum access to diet and water.
FACS based muscle stem cell isolation. Gastrocnemius, soleus, quadriceps, and tibialis anterior muscles from both limbs were excised and transferred into PBS on ice. All muscles were trimmed, minced and digested with 0.1 mg/ml of type II collagenase (Sigma) in PBS for 15 min at 37° C. Samples were then centrifuged at 750 g for 5 min and further digested in 1 mg/ml of collagenase/dispase (Roche) for 30 mins at 37° C. Muscle slurries were sequentially filtered through 100, 70 and 40 μm cell strainers. […] Stained cells were analysed and sorted using the FACSAria II instrument (BD Biosciences). […]

NC(=O)c1ccc[n+]([C@@H]2O[C@H](CO)[C@@H](O)[C@H]2O)c1 [NR, nicotinamide riboside]
muscle regeneration after CTX-induced muscle damage (H/E) ([1]; aged mice, 7 and 14 days of regeneration, FIG. 3H): accelerated muscle regeneration
PAX7-positive MuSCs after CTX-induced damage ([1]; aged mice, FIG. 3I-J): increases in PAX7-positive MuSCs
embryonic myosin heavy chain (eMyHC) staining, newly regenerated fibers ([1]; aged mice, 7 days after CTX-induced damage, FIG. 3L): improvements in embryonic myosin heavy chain staining
MYOD1-positive PAX7 immunostained cells (stemness) ([1]; aged mice, 7 days after muscle damage, FIG. 3K): reduction in MYOD1-positive PAX7 immunostained cells
muscle regeneration after CTX-induced muscle damage ([1]; young mice): accelerated muscle regeneration
PAX7-positive MuSCs after CTX-induced damage ([1]; young mice): trend to increase
dependence of NR effects on cell senescence on prohibitins (C2C12 myoblasts; C2C12, Phb1 and Phb2 shRNA knockdown with 6-hour NR treatment, overexpression, FIG. 5C,D): PHB-dependent
Phb1 and Phb2 expression (C2C12 myoblasts; C2C12 myoblasts, NR treatment, FIG. 5A): induced Phb1 and Phb2 expression
UPRmt markers (HSP60, CLPP) (C2C12 myoblasts; NR-treated C2C12 mouse myoblasts, FIG. 5A): similarly induced
increase of MuSC numbers in vivo (MuSCs; Mdx mice, NR 400 mg/kg/day in diet, FACS, FIG. 6B-D): ~1.8 fold
MuSC numbers by PAX7 immunostaining (MuSCs; NR-treated Mdx mice, FIG. 6E): confirmed by PAX7 immunostaining
